Test results from US20040186021A1, “Substituted benzo-nitro-heterocycles” (priority 2001, published 2004).

Experiments:
[1] = logP determination by HPLC (reversed-phase column C 18), EC Directive 79/831 Annex V.A8; type: physicochemical; conditions: for chromatographic logP: reversed-phase HPLC column (C 18), at pH=2; for logP a): acetonitrile, 43° C.
Method: LogP values given in Table 1 were determined in accordance with EC Directive 79/831 Annex V.A8 by HPLC (High Performance Liquid Chromatography) using a reversed-phase column (C 18). Temperature: 43° C. (a) Mobile phases for the determination in the acidic range: 0.1% aqueous phosphoric acid, acetonitrile; linear gradient from 10% acetonitrile to 90% acetonitrile—the corresponding measurement results in Table 1 are marked ^a). (b) Mobile phases for the determination in the neutral range: 0.01 molar aqueous phosphate buffer solution, acetonitrile; linear gradient from 10% acetonitrile to 90% acetonitrile—the corresponding measurement results in Table 1 are marked ^b). Calibration was carried out using unbranched alkan-2-ones (having 3 to 16 carbon atoms) with known logP values (determination of the logP values by the retention times using linear interpolation between two successive alkanones).

weeds [2] = test: Post-emergence test (Example B); type: in vivo; conditions: test plants of 5-15 cm sprayed, rated after three weeks
Method: To produce a suitable preparation of active compound, one part by weight of active compound is mixed with the stated amount of solvent, the stated amount of emulsifier is added and the concentrate is diluted with water to the desired concentration.
Test plants of a height of 5-15 cm are sprayed with the preparation of active compounds such that the particular amounts of active compounds desired are applied per unit area. The concentration of the spray liquor is chosen such that the particular amounts of active compounds desired are applied in 1000 l of water/ha.
After three weeks, the degree of damage to the plants is rated in % damage in comparison to the development of the untreated control.
0%=no effect (like untreated control)

weeds [3] = test: Pre-emergence test (Example A); type: in vivo; conditions: soil sprayed 24 hours after sowing, rated after three weeks
Method: Pre-Emergence Test [table] To produce a suitable preparation of active compound, one part by weight of active compound is mixed with the stated amount of solvent, the stated amount of emulsifier is added and the concentrate is diluted with water to the desired concentration. Seeds of the test plants are sown in normal soil. After 24 hours, the soil is sprayed with the preparation of active compounds such that the particular amount of active compound desired is applied per unit area. The concentration of active compound in the spray liquor is chosen such that the particular amount of active compound desired is applied in 1000 litres of water per hectare. After three weeks, the degree of damage to the plants is rated in % damage in comparison to the development of untreated control. The figures denote: 0%=no effect (like untreated control) 100%=total destruction

[4] = Table 1; a) acidic range: 0.1% aqueous phosphoric acid
[5] = Table 2, compounds of formula (II); a) acidic range: 0.1% aqueous phosphoric acid

Compound | action against weeds (degree of damage to the plants) (weeds [2]) | action against weeds (degree of damage to the plants) (weeds [3]) | logP a) [1, 4] | other results
O=c1[nH]c2cc(-n3c(=O)cc(C(F)(F)F)[nH]c3=O)c(F)cc2s1 [3-(6-fluoro-2,3-dihydro-2-oxo-1,3-benzothiazol-5-yl)-6-trifluoromethyl-2,4(1H,3H)-pyrimidinedione] |  |  |  | chromatographic logP [1]: 1.48
CCOC(=O)CN1C(=O)COc2ccc(-n3c(=O)cc(C(F)(F)F)n(N)c3=O)cc21 [Example 1, ethyl 6-(3-amino-3,6-dihydro-2,6-dioxo-4-trifluoromethyl-1 (2H)-pyrimidynyl)-2,3-dihydro-3-oxo-4H-1,4-benzoxazine-4-acetate] | very strong action against weeds | very strong action against weeds |  | chromatographic logP [1]: 1.9
CCOC(=O)n1c(=O)sc2cc(F)c(-n3c(=O)cc(C(F)(F)F)n(N)c3=O)cc21 [Example 2, ethyl 5-(3-amino-3,6-dihydro-2,6-dioxo-4-trifluoromethyl-1(2H)-pyrimidynyl)-6-fluoro-2-oxo-3(2H)-benzothiazole carboxylate] |  |  |  | chromatographic logP [1]: 2.44
CS(=O)(=O)n1c(=O)sc2cc(F)c(-n3c(=O)cc(C(F)(F)F)n(N)c3=O)cc21 [Example 3, 1-amino-3-(6-fluoro-2,3-dihydro-3-methylsulphonyl-2-oxo-5-benzothiazolyl)-6-trifluoromethyl-2,4(1H,3H)-pyrimidinedione] |  |  |  | chromatographic logP [1]: 2.16
N#CCn1c(=O)sc2cc(F)c(-n3c(=O)cc(C(F)(F)F)n(N)c3=O)cc21 [Example 4] |  |  | 1.97^a) | 
N#CCN1C(=O)COc2cc(F)c(-n3c(=O)cc(C(F)(F)F)n(N)c3=O)cc21 [Example 5] | very strong action against weeds | very strong action against weeds | 1.83^a) | 
N#CCN1C(=O)COc2ccc(-n3c(=O)cc(C(F)(F)F)n(N)c3=O)cc21 [Example 6] | very strong action against weeds | very strong action against weeds | 1.57^a) | 
COC(=O)CN1C(=O)COc2cc(F)c(-n3c(=O)cc(C(F)(F)F)n(N)c3=O)cc21 [Example 7] | very strong action against weeds | very strong action against weeds | 1.90^a) | 
CCOC(=O)CN1C(=O)COc2cc(F)c(-n3c(=O)cc(C(F)(F)F)n(N)c3=O)cc21 [Example 8] | very strong action against weeds | very strong action against weeds | 2.14^a) | 
CC(C)(C)OC(=O)CN1C(=O)COc2cc(F)c(-n3c(=O)cc(C(F)(F)F)n(N)c3=O)cc21 [Example 9] | very strong action against weeds | very strong action against weeds | 2.60^a) | 
CC(C)OC(=O)CN1C(=O)COc2cc(F)c(-n3c(=O)cc(C(F)(F)F)n(N)c3=O)cc21 [Example 10] | very strong action against weeds | very strong action against weeds | 2.38^a) | 
COC(=O)CN1C(=O)COc2ccc(-n3c(=O)cc(C(F)(F)F)n(N)c3=O)cc21 [Example 11] | very strong action against weeds | very strong action against weeds |  | 
CC(C)OC(=O)CN1C(=O)COc2ccc(-n3c(=O)cc(C(F)(F)F)n(N)c3=O)cc21 [Example 12] | very strong action against weeds | very strong action against weeds | 2.14^a) | 
CC(C)(C)OC(=O)CN1C(=O)COc2ccc(-n3c(=O)cc(C(F)(F)F)n(N)c3=O)cc21 [Example 13] |  |  | 2.37^a) | 
CC(=O)n1c(=O)sc2cc(F)c(-n3c(=O)cc(C(F)(F)F)n(N)c3=O)cc21 [Example 14] |  |  | 2.36^a) | 
COC(=O)C=C(CCl)n1c(=O)sc2cc(F)c(-n3c(=O)cc(C(F)(F)F)n(N)c3=O)cc21 [Example 22] |  |  | 2.46^a) | 
CC(C)COC(=O)n1c(=O)sc2cc(F)c(-n3c(=O)cc(C(F)(F)F)n(N)c3=O)cc21 [Example 23] |  |  | 3.17^a) | 
CCOC(=O)C=C(n1c(=O)sc2cc(F)c(-n3c(=O)cc(C(F)(F)F)n(N)c3=O)cc21)C(F)(F)F [Example 24] |  |  | 2.98^a) | 
CCOC(=O)C=CCn1c(=O)sc2cc(F)c(-n3c(=O)cc(C(F)(F)F)n(N)c3=O)cc21 [Example 25] |  |  | 2.51^a) | 
N#Cn1c(=O)sc2cc(F)c(-n3c(=O)cc(C(F)(F)F)n(N)c3=O)cc21 [Example 30] |  |  | 2.19^a) | 
Nn1c(C(F)(F)F)cc(=O)n(-c2cc3[nH]c(=O)sc3cc2F)c1=O [II-1, 1-amino-3-(6-fluoro-2,3-dihydro-2-oxo-1,3-benzothiazol-5-yl)-6-trifluoromethyl-2,4(1H,3H)-pyrimidinedione] |  |  |  | chromatographic logP [1]: 1.66
Nn1c(C(F)(F)F)cc(=O)n(-c2ccc3c(c2)NC(=O)CO3)c1=O [II-2] |  |  |  | logP a) [1, 5]: logP = 1.22^a)
Nn1c(C(F)(F)F)cc(=O)n(-c2cc3c(cc2F)OCC(=O)N3)c1=O [II-3] |  |  |  | logP a) [1, 5]: logP = 1.57^a)
